Patent US8106048B2, “Heterocyclic NF-κB inhibitors” (4SC AG, priority 2004, dated 2012)

Columns and labels:
[1] = target: T1, 20S and 26S proteasome (Homo sapiens, UniProt P28072+P28074+Q99436); conditions: cited from earlier work
T1 sequence (P28074 60-263): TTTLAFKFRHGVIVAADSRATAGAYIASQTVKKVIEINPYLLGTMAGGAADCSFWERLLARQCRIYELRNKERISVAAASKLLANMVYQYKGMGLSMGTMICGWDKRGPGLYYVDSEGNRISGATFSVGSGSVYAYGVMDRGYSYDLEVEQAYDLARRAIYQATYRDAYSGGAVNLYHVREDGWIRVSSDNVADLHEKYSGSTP
T1 sequence (P28072 1-239): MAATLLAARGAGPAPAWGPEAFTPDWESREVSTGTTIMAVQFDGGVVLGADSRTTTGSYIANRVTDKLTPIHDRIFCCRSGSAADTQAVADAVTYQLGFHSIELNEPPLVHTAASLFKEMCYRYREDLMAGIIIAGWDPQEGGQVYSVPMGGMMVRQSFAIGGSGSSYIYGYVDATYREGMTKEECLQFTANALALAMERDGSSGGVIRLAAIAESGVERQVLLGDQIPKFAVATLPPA
T1 sequence (Q99436 44-277): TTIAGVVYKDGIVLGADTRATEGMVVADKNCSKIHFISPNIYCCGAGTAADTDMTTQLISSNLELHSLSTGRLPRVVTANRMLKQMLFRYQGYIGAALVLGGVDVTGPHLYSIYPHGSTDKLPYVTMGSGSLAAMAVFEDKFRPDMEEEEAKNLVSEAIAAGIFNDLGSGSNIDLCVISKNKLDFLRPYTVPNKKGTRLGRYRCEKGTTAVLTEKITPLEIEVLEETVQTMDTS

[2] = test system: IκB-α; conditions: cited from earlier work
[3] = test system: NF-κB; conditions: cited from earlier work
[4] = test system: p65 subunit of NF-κB; conditions: cited from earlier work
[5] = test system: TNF-α; conditions: mouse; cited from earlier work
[6] = test system: NF-κB; conditions: cited from earlier work; remark: listed apart in the source
[7] = test system: A549-NF-κB-SEAP reporter cells; assay: Inhibition of NF-κB-induced inflammation: […] NINA Instant Assay, TNF-α stimulated SEAP reporter; assay type: cell-based
Outline: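 A549 cells carrying an NF-κB-driven SEAP reporter were pretreated with compound (0.01–100 μM) for 4.5 h, then stimulated with 2 ng/ml TNF-α for 22 h. After inactivation of endogenous phosphatases, SEAP activity was read by CSPD chemiluminescence (40 min). EC50 values were fitted from quadruplicate data points.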

For `CC(=O)N[C@@H](CSC(=O)[C@]1([C@@H](O)C(C)C)NC(=O)[C@H](C)[C@@H]1O)C(=O)O` [Lactacystin], the “inhibition of 20S and 26S proteasome” value [1] is listed as “inhibits both, 20S and 26S proteasome” and the “inhibitory activity on proteasome peptidase activities” value ([1]; trypsin-like, chymotrypsin-like, peptidylglutamylpeptide hydrolyzing) is listed as “inhibitory activity on trypsin-like, chymotrypsin-like and peptidylglutamylpeptide hydrolyzing activities”.

For `C=C1C(=O)O[C@@H]2C[C@H](C)[C@H]3C=CC(=O)[C@@]3(C)[C@@H](O)[C@H]12` [Helenalin], the IκB degradation [2] is listed as “did not inhibit”, the “NF-κB activation / activity” value [3] is listed as “inhibit NF-κB activity by selectively alkylating the cysteine residue of the p65 subunit of NF-κB” and the “translocation of NF-κB to the nucleus” value [4] is listed as “did not inhibit”.

In the case of `COc1cc(CNC(=O)CCCC/C=C/C(C)C)ccc1O` [capsaicin], the IκB degradation [2] is given as “blocked degradation of IκB-α”, the “NF-κB activation / activity” value [3] is given as “blocked TNF-α and phorbol mediated NF-κB activation” and the “translocation of NF-κB to the nucleus” value [4] is given as “blocked”.

For `NC(=O)c1cccnc1` [nicotinamide], the “lipopolysaccharide-induced TNF-α production” value [5] is given as “blocked lipopolysacharide-induced TNF-α production in mouse in a dose dependent manner”.

For `CCN(CC)CCNC(=O)c1ccc(N)c(Cl)c1` [3-chloroprocainamide], the “inhibition of NF-κB transcriptional activation” value [6] is given as “inhibitors of NF-κB transcritional activation” and the “lipopolysaccharide-induced TNF-α production” value [5] is given as “blocked lipopolysacharide-induced TNF-α production in mouse in a dose dependent manner”.

For `COc1cccc(CN2CCC(c3nc(C(=O)N4CCN(c5cccc(C(F)(F)F)c5)CC4)cs3)CC2)c1` [compound 173], the “Biological activity (inhibition in the NF-κB inflammation assay)” value ([7]; % inhibition classes) was “+ (“+” stands for 50-80% inhibition)”.

For `O=C(Cc1ccc(F)cc1)N1CCC(c2nc(C(=O)N3CCCC3c3ccc(F)cc3)cs2)CC1` (stereo not shown) [compound 236], the “Biological activity (inhibition in the NF-κB inflammation assay)” value ([7]; inhibition classes) was “+ (“+” stands for 50-80% inhibition)”.

For `O=C(Cc1ccc(F)cc1)N1CCC(c2nc(C(=O)N3CCN(c4ccccn4)CC3)cs2)CC1` [compound 237], the “Biological activity (inhibition in the NF-κB inflammation assay)” value ([7]; inhibition classes) was “+ (“+” stands for 50-80% inhibition)”.

In the case of `S=C(S)N1CCCC1` [pyrrolidine dithiocarbamate], the “inhibition of NF-κB transcriptional activation” value [6] is listed as “inhibitors of NF-κB transcritional activation” and the “lipopolysaccharide-induced TNF-α production” value [5] is listed as “blocked lipopolysacharide-induced TNF-α production in mouse in a dose dependent manner”.
